Assay results published in ChEMBL document CHEMBL4507259 (2021).

How the values were obtained:
[1] = target: Non-receptor tyrosine-protein kinase TYK2 (Homo sapiens) (UniProt P29597); conditions: Compound concentration 1000.0 nM
[2] = target: Peripheral plasma membrane protein CASK (Homo sapiens) (UniProt O14936); conditions: Compound concentration 1000.0 nM
[3] = target: Mitogen-activated protein kinase kinase kinase 19 (Homo sapiens) (UniProt Q56UN5); conditions: Compound concentration 1000.0 nM
[4] = target: Calcium-dependent protein kinase 1 (Plasmodium falciparum) (UniProt P62344); conditions: Compound concentration 1000.0 nM
[5] = tested on: Epidermal growth factor receptor (Homo sapiens), P00533 [UNDEFINED MUTATION]; conditions: Compound concentration 1000.0 nM
[6] = target: Mitogen-activated protein kinase kinase kinase 9 (Homo sapiens) (UniProt P80192); conditions: Compound concentration 1000.0 nM
[7] = target: Protein kinase C eta type (Homo sapiens) (UniProt P24723); conditions: Compound concentration 1000.0 nM
[8] = tested on: Epidermal growth factor receptor (Homo sapiens), P00533 [UNDEFINED MUTATION]; conditions: Compound concentration 1000.0 nM; remark: listed apart in the source
[9] = target: MAP/microtubule affinity-regulating kinase 3 (Homo sapiens) (UniProt P27448); conditions: Compound concentration 1000.0 nM
[10] = target: Dual specificity protein kinase CLK2 (Homo sapiens) (UniProt P49760); conditions: Compound concentration 1000.0 nM
[11] = tested on: Epidermal growth factor receptor (Homo sapiens), P00533 [L861Q]; conditions: Compound concentration 1000.0 nM
[12] = target: Angiopoietin-1 receptor (Homo sapiens) (UniProt Q02763); conditions: Compound concentration 1000.0 nM
[13] = target: Serine/threonine-protein kinase D1 (Homo sapiens) (UniProt Q15139); conditions: Compound concentration 1000.0 nM
[14] = tested on: Hepatocyte growth factor receptor (Homo sapiens), P08581 [M1250T]; conditions: Compound concentration 1000.0 nM
[15] = target: Ribosomal protein S6 kinase alpha-6 (Homo sapiens) (UniProt Q9UK32); conditions: Compound concentration 1000.0 nM
[16] = target: Serine/threonine-protein kinase 33 (Homo sapiens) (UniProt Q9BYT3); conditions: Compound concentration 1000.0 nM
[17] = target: Cyclin-dependent kinase 3 (Homo sapiens) (UniProt Q00526); conditions: Compound concentration 1000.0 nM
[18] = target: 1-phosphatidylinositol 3-phosphate 5-kinase (Homo sapiens) (UniProt Q9Y2I7); conditions: Compound concentration 1000.0 nM
[19] = target: Histamine H4 receptor (Homo sapiens) (UniProt Q9H3N8); conditions: Compound concentration 10.0 uM
[20] = target: Mitogen-activated protein kinase kinase kinase 5 (Homo sapiens) (UniProt Q99683); conditions: Compound concentration 1000.0 nM
[21] = target: Mast/stem cell growth factor receptor Kit (Homo sapiens) (UniProt P10721); conditions: Compound concentration 1000.0 nM
[22] = target: AP2-associated protein kinase 1 (Homo sapiens) (UniProt Q2M2I8); conditions: Compound concentration 1000.0 nM
[23] = target: Serine/threonine-protein kinase PLK4 (Homo sapiens) (UniProt O00444); conditions: Compound concentration 1000.0 nM
[24] = target: RAC-alpha serine/threonine-protein kinase (Homo sapiens) (UniProt P31749); conditions: Compound concentration 1000.0 nM
[25] = target: BMP-2-inducible protein kinase (Homo sapiens) (UniProt Q9NSY1); conditions: Compound concentration 1000.0 nM
[26] = tested on: Mast/stem cell growth factor receptor Kit (Homo sapiens), P10721 [L576P]; conditions: Compound concentration 1000.0 nM
[27] = target: Phosphatidylinositol 4-phosphate 5-kinase type-1 alpha (Homo sapiens) (UniProt Q99755); conditions: Compound concentration 1000.0 nM
[28] = target: Cyclin-dependent kinase 4 (Homo sapiens) (UniProt P11802); conditions: Compound concentration 1000.0 nM
[29] = target: Tyrosine-protein kinase receptor Tie-1 (Homo sapiens) (UniProt P35590); conditions: Compound concentration 1000.0 nM
[30] = target: Serine/threonine-protein kinase TBK1 (Homo sapiens) (UniProt Q9UHD2); conditions: Compound concentration 1000.0 nM
[31] = target: Interleukin-1 receptor-associated kinase 3 (Homo sapiens) (UniProt Q9Y616); conditions: Compound concentration 1000.0 nM
[32] = target: Serine/threonine-protein kinase NLK (Homo sapiens) (UniProt Q9UBE8); conditions: Compound concentration 1000.0 nM
[33] = target: Ribosomal protein S6 kinase alpha-3 (Homo sapiens) (UniProt P51812); conditions: Compound concentration 1000.0 nM
[34] = tested on: Mast/stem cell growth factor receptor Kit (Homo sapiens), P10721 [V559D,T670I]; conditions: Compound concentration 1000.0 nM
[35] = tested on: Tyrosine-protein kinase ABL1 (Homo sapiens), P00519 [H396P]; conditions: Compound concentration 1000.0 nM
[36] = tested on: Tyrosine-protein kinase ABL1 (Homo sapiens), P00519 [Y253F]; conditions: Compound concentration 1000.0 nM
[37] = target: Serine/threonine-protein kinase BRSK1 (Homo sapiens) (UniProt Q8TDC3); conditions: Compound concentration 1000.0 nM
[38] = target: Kappa-type opioid receptor (Homo sapiens) (UniProt P41145); assay: kappa (KOP) CEREP ligand profiling; conditions: filed as agonist; Compound concentration 10.0 uM
[39] = target: Ribosomal protein S6 kinase alpha-4 (Homo sapiens) (UniProt O75676); conditions: Compound concentration 1000.0 nM
[40] = target: 5-hydroxytryptamine receptor 2B (Homo sapiens, UniProt P41595); conditions: Compound concentration 10.0 uM
[41] = target: Ribosomal protein S6 kinase alpha-5 (Homo sapiens) (UniProt O75582); conditions: Compound concentration 1000.0 nM
[42] = target: Ephrin type-A receptor 7 (Homo sapiens) (UniProt Q15375); conditions: Compound concentration 1000.0 nM
[43] = target: cGMP-dependent protein kinase 1 (Homo sapiens) (UniProt Q13976); conditions: Compound concentration 1000.0 nM
[44] = target: Beta-1 adrenergic receptor (Homo sapiens) (UniProt P08588); conditions: Compound concentration 10.0 uM
[45] = target: Calcium/calmodulin-dependent protein kinase kinase 2 (Homo sapiens) (UniProt Q96RR4); conditions: Compound concentration 1000.0 nM
Calcium/calmodulin-dependent protein kinase kinase 2 (Homo sapiens), sequence (Q96RR4 2-588 limits assumed): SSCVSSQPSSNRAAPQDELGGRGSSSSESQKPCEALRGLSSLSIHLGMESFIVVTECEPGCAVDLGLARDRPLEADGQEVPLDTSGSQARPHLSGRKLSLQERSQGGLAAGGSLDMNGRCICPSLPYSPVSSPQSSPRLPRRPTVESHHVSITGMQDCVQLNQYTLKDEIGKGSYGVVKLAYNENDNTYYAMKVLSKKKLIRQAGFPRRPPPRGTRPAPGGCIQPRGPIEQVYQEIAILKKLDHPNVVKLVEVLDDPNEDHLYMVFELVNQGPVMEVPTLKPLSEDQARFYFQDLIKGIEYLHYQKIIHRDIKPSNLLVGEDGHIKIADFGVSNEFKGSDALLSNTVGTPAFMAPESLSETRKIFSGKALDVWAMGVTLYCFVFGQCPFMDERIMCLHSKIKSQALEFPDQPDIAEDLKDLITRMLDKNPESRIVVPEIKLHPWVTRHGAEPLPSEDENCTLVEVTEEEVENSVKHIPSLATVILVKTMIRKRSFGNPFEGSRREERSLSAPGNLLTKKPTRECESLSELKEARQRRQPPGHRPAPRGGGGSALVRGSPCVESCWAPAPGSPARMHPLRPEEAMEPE

Interleukin-1 receptor-associated kinase 3 (Homo sapiens), sequence (Q9Y616 whole entry): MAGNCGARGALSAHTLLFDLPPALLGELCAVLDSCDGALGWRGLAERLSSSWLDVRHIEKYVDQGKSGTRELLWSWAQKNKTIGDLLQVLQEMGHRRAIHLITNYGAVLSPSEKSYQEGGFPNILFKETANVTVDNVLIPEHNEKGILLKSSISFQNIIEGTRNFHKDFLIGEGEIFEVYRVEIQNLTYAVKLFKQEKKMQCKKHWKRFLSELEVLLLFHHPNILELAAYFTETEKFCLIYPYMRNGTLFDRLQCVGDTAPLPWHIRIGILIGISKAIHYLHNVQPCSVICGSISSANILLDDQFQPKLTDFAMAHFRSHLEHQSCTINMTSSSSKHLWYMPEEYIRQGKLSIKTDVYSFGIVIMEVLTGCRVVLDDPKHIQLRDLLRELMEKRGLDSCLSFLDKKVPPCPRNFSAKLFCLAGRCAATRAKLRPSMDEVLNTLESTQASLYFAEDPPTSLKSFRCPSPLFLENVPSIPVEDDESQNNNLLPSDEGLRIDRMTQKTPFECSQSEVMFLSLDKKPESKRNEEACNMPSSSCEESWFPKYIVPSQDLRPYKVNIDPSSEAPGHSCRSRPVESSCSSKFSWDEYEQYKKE
Ribosomal protein S6 kinase alpha-4 (Homo sapiens), sequence (O75676 whole entry, looked up): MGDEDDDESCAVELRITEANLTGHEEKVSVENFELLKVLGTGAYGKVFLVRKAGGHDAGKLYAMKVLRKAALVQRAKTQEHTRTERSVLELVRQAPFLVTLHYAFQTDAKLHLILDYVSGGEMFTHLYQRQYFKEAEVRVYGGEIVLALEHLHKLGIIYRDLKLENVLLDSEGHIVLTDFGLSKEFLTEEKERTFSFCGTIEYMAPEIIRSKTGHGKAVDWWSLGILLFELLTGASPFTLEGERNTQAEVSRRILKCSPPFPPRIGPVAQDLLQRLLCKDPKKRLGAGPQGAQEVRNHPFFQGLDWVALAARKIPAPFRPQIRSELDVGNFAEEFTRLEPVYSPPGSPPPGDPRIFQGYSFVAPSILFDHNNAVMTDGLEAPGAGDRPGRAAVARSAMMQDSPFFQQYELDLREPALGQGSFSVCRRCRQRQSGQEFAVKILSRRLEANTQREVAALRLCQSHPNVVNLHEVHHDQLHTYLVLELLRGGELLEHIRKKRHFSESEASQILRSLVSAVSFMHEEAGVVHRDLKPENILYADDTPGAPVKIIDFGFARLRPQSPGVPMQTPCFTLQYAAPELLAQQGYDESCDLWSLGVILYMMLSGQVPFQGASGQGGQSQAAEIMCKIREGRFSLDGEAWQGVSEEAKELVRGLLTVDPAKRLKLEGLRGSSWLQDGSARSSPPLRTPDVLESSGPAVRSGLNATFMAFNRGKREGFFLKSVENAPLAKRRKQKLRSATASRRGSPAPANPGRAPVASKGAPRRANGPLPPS
Tyrosine-protein kinase receptor Tie-1 (Homo sapiens), sequence (P35590 whole entry): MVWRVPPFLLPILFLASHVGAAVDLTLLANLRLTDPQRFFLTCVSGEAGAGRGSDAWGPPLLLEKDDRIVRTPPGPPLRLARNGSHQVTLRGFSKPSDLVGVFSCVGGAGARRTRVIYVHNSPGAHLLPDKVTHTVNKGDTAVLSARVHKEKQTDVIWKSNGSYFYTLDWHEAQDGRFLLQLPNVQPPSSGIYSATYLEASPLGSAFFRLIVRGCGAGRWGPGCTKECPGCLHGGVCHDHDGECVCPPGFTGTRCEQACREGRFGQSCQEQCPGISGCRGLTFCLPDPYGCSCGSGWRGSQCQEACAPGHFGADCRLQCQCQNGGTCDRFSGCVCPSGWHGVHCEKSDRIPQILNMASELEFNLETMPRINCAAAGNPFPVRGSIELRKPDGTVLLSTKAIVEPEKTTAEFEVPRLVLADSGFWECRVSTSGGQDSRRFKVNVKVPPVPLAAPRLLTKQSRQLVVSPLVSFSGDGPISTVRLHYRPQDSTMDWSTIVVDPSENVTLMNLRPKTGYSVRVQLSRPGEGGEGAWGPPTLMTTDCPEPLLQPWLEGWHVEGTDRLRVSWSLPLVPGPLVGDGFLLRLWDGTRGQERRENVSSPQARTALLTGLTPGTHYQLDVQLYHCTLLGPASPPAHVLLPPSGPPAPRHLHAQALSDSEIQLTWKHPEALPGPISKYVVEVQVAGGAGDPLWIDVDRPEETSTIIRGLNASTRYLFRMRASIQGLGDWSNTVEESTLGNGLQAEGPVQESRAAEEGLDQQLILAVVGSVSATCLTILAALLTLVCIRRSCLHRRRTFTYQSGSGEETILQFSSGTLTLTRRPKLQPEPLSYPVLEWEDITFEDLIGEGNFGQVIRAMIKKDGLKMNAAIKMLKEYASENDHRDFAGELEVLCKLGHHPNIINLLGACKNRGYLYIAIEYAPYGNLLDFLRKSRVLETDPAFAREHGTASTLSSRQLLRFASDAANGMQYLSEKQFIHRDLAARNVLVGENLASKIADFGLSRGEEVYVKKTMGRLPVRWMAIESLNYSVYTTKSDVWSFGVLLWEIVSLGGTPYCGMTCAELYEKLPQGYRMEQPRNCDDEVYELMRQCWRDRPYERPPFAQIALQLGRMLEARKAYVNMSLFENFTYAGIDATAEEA
Ephrin type-A receptor 7 (Homo sapiens), sequence (Q15375 28-998 limits assumed): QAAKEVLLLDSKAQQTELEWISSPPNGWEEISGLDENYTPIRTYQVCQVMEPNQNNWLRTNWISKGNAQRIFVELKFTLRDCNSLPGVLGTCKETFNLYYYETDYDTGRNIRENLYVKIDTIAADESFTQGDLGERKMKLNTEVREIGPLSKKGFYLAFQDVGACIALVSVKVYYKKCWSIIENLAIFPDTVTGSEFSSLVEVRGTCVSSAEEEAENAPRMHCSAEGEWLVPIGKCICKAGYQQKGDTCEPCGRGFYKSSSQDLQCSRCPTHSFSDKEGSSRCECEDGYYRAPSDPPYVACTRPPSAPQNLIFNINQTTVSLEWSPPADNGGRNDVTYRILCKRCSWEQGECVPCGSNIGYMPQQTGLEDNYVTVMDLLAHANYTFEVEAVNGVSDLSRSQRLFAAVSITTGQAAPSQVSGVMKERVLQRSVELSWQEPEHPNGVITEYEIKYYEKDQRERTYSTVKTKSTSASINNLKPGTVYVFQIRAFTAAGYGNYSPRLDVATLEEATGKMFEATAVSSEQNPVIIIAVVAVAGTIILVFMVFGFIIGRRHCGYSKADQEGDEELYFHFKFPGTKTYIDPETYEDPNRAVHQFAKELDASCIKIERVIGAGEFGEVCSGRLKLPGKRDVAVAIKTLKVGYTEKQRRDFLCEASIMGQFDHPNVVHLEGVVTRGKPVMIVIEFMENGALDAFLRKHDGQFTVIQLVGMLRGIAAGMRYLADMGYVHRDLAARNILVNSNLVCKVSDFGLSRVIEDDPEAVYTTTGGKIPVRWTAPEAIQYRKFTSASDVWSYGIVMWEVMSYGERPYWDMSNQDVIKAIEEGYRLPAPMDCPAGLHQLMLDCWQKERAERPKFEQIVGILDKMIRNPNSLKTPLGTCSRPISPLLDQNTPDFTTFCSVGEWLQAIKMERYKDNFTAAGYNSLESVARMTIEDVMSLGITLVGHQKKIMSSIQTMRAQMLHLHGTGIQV
Cyclin-dependent kinase 4 (Homo sapiens), sequence (P11802 whole entry): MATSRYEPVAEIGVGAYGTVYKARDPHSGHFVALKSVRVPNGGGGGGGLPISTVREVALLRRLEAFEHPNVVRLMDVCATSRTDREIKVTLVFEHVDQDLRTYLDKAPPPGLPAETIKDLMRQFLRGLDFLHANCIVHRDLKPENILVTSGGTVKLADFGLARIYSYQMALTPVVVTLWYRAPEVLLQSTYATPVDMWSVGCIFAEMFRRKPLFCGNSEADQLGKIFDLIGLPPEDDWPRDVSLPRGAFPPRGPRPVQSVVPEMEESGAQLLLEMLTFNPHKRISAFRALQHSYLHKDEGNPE
Dual specificity protein kinase CLK2 (Homo sapiens), sequence (P49760 whole entry, looked up): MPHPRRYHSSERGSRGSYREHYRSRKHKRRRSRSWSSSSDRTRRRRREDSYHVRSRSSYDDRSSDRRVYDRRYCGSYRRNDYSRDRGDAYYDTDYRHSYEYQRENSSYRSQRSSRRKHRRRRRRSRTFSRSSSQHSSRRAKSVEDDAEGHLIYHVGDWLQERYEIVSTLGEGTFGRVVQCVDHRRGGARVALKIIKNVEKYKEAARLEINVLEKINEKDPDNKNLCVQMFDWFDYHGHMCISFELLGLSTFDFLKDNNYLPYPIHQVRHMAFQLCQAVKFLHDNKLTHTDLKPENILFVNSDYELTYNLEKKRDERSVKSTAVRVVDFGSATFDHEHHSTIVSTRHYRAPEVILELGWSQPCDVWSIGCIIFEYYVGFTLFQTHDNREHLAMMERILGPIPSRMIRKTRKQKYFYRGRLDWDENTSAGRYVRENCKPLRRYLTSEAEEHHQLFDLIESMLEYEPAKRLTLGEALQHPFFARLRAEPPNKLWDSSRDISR

## CNC(=O)Nc1ccc2c(c1)[C@@]1(CC2)OC(=O)N(CC(=O)N(Cc2ccc(F)cc2)[C@@H](C)C(F)(F)F)C1=O [A-486]
[1]
  residual activity: 68%
[2]
  residual activity: 66%
[3]
  residual activity: 73%
[4]
  residual activity: 93%
[5]
  residual activity: 85%
[6]
  residual activity: 100%
[7]
  residual activity: 87%
[8]
  residual activity: 100%
[9]
  residual activity: 100%
[10]
  residual activity: 100%
[11]
  residual activity: 100%
[12]
  residual activity: 100%
[13]
  residual activity: 100%
[14]
  residual activity: 100%
[15]
  residual activity: 100%
[16]
  residual activity: 100%
[17]
  residual activity: 100%
[18]
  residual activity: 72%
[19]
  inhibition: 5.16%
[20]
  residual activity: 100%
[21]
  residual activity: 89%
[22]
  residual activity: 100%
[23]
  residual activity: 100%
[24]
  residual activity: 77%
[25]
  residual activity: 100%
[26]
  residual activity: 81%
[27]
  residual activity: 89%
[28]
  residual activity: 75%
[29]
  residual activity: 100%
[30]
  residual activity: 84%
[31]
  residual activity: 100%
[32]
  residual activity: 77%
[33]
  residual activity: 84%
[34]
  residual activity: 100%
[35]
  residual activity: 53%
[36]
  residual activity: 100%
[37]
  residual activity: 100%
[38]
  inhibition: 12%
[39]
  residual activity: 100%
[40]
  inhibition: 29.2%
[41]
  residual activity: 74%
[42]
  residual activity: 100%
[43]
  residual activity: 100%
[44]
  inhibition: -4.4%
[45]
  residual activity: 99%

## CNC(=O)Nc1ccc2c(c1)CC[C@@]21OC(=O)N(CC(=O)N(Cc2ccc(F)cc2)[C@@H](C)C(F)(F)F)C1=O [A-485]
[1]
  residual activity: 86%
[2]
  residual activity: 86%
[3]
  residual activity: 78%
[4]
  residual activity: 83%
[5]
  residual activity: 67%
[6]
  residual activity: 89%
[7]
  residual activity: 93%
[8]
  residual activity: 63%
[9]
  residual activity: 100%
[10]
  residual activity: 97%
[11]
  residual activity: 94%
[12]
  residual activity: 87%
[13]
  residual activity: 99%
[14]
  residual activity: 75%
[15]
  residual activity: 84%
[16]
  residual activity: 100%
[17]
  residual activity: 100%
[18]
  residual activity: 58%
[19]
  inhibition: 10.1%
[20]
  residual activity: 94%
[21]
  residual activity: 97%
[22]
  residual activity: 100%
[23]
  residual activity: 100%
[24]
  residual activity: 91%
[25]
  residual activity: 98%
[26]
  residual activity: 100%
[27]
  residual activity: 95%
[28]
  residual activity: 91%
[29]
  residual activity: 89%
[30]
  residual activity: 83%
[31]
  residual activity: 95%
[32]
  residual activity: 82%
[33]
  residual activity: 87%
[34]
  residual activity: 93%
[35]
  residual activity: 49%
[36]
  residual activity: 81%
[37]
  residual activity: 97%
[38]
  inhibition: 28%
[39]
  residual activity: 100%
[40]
  inhibition: 81.4%
[41]
  residual activity: 97%
[42]
  residual activity: 88%
[43]
  residual activity: 100%
[44]
  inhibition: -5.22%
[45]
  residual activity: 76%
